Measurements published in patent publication EP0531640B1, “Antibiotic LL-E19020 Gamma” (F. HOFFMANN-LA ROCHE AG, priority 1991, dated 1993).

Experiment: Growth of chickens and efficiency of feed utilization
Assay type: in vivo, Peterson X Arbor Acres chicks
Conditions: chicks, 200 ppm in the diet (positive control), day 1 to day 14
Description: In this test, one day old Peterson X Arbor Acres chicks are sorted into equal weight groups of 5 males and 5 females per cage. Cages are randomized to treatment groups with six replicates per treatment. The test compound is evaluated 25 ppm in the diet against chicks receiving a non-medicated diet and a diet containing 200 ppm of penicillin as a positive control.
The cages are weighed at day 1 and at day 14 and feed consumption is measured on weigh days. Feed and water are offered ad libitum and lighting and supplemental heat are provided continuously.
The poultry diet employed in the test is as follows:
The vitamin-amino acid premix in the above feed composition is prepared from the following formulation. The expressions of quantity relate to units per kilogram of the finished feed composition.

## Penicillin [reference compound]
  Weight Gain: 344 g
  Weight Gain, % improvement over control: 7.2%
  feed conversion: 1.317
  feed conversion, % improvement over control: 0.4%
